biological target: T1, ERR-α (Homo sapiens, UniProt P11474); assay: LC/MS kinetics of association and dissociation for ligands forming a covalent bond to Cys325 of ERR-α; type: binding; details: dissociation rate by LC/MS with 20-fold excess Compound 2 as competing ligand; 37° C.
T1 construct: made in house; host or cells: Spodoptera frugiperda (Sf9) insect cells, baculovirus
T1 sequence (P11474 with tags, fused parts or gaps): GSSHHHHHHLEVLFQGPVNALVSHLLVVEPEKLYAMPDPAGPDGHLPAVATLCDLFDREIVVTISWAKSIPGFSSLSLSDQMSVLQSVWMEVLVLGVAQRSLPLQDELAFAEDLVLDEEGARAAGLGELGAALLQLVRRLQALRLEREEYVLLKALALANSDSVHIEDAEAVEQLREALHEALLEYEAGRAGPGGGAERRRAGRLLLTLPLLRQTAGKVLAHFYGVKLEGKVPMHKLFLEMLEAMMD
From the text: The progress of the reaction was also expressed as a fraction of the area observed for the complex of ERR-α and the competing ligand over the sum of total area for the complex of ERR-α with the ligand and the complex of ERR-α with the competing ligand.
where k is the apparent rate constant.

| kd | Compound |
| --- | --- |
| 1.53e-05 s⁻¹ | COc1cc(/C=C2\SC(N3CCN(C)CC3)=NC2=O)ccc1Oc1ccc(C#N)cc1C(F)(F)F [Compound 3] |
| 2.19e-05 s⁻¹ | CN1CCN(C2=NC(=O)/C(=C/c3ccc(Oc4ccc(C#N)cc4C(F)(F)F)c(F)c3)S2)CC1 [Compound 4] |
| 2.05e-05 s⁻¹ | COc1cc(/C=C2\SC(N)=NC2=O)ccc1Oc1ccc(C#N)cc1C(F)(F)F [Compound 5] |

| Compound | kd |
| --- | --- |
| COc1cc(/C=C2\SC(=O)NC2=O)ccc1Oc1ccc(C#N)cc1C(F)(F)F [Compound 1] | 1.1e-05 s⁻¹ |
